The values that follow come from patent US8802596B2, “Multi-functional ionic liquid compositions for overcoming polymorphism and imparting improved properties for active pharmaceutical, biological, nutritional, and energetic ingredients” (Board of Trustees of the University of Alabama, priority 2005, dated 2014).

The test system of data set [1] is S. aureus, E. faecium, E. coli, C. albicans. Description: Average value of MIC / MBC over the four cultures. It counts as cell-based. To be noted: for MBC Average value / MIC Average value: average over S. aureus, E. faecium, E. coli, C. albicans; for Biological activity compared with the starting quaternary ammonium chloride (average MIC and MBC): in words, refers to Tables 3 and 4. The method, then: (§1) In the biological activity measurements (tests) following bacteria were used: Staphylococcus aureus ATCC 6538, Enterococcus faecium ATCC 49474, Escherichia coli ATCC 25922 and fungi Candida albicans ATCC 10231.
(§2) Microbiological activity tests were performed using dissolution method. Determinations were performed on liquid base (background): Mueller-Hinton for bacteria and Sabouraud for fungi. Starting solution had the concentration of 1 g/cm^3. From this solution, all other solutions (lower concentrations) were prepared. To those solutions, 0.1 cm^3 of the suspensions of standard microorganisms at a concentration of 10^6 cfu cm^3 were added. The samples with bacteria were incubated for 24 h at the temperature of 37° C., and with fungi there were incubated for 48 h at the temperature of 22° C. After incubation time the MIC, Minimal Inhibitory Concentration, minimal concentration of the investigated compound at which the growth of the microorganisms is stopped (visually), was specified (recorded) for every sample. To define the MBC, Minimal Bactericidal Concentration, additionally to each solution the 10^−6 cm^3 of the inactivator was added on the base (background) (0.3% lecithin, 3% polysorbate 80 and 0.1% L-cysteine). The samples with bacteria were incubated for 48 h in the temperature of 37° C. The fungi samples were incubated for 5 days at the temperature of 22° C. MBC values were defined (specified) as the concentration at which the level of the reduction of the microorganisms was not lower than 99.99%.

Data set [2] deals with Candida albicans ATCC 10231. Nature of the data set: Microbiological activity test (dilution method), MIC and MBC. The class given is cell-based. The method, then: as §1, §2
Data set [3] concerns Escherichia coli ATCC 25922. The data set is described as above. The class given is cell-based. As for the experimental part:
as §1, §2

The test system of data set [4] is Staphylococcus aureus ATCC 6538. Described as above. The class given is cell-based. The method, then: as §1, §2
Data set [5] deals with Enterococcus faecium ATCC 49474. Described as above. The class given is cell-based. As for the experimental part: as §1, §2
Data set [6] in a line: Thermal stability (thermalgravimetric analysis, TGA). It counts as physicochemical. As to conditions: for Tonset / Tonset5%: TGA; for Td - temperature of total decomposition / Tonset - onset temperature of the decomposition / Tonset(5%) - onset temperature for 5% of the decomposition: Table 2, no unit in table (temperature is in ° C.).
A further data set concerns Swiss-Webster male mice. As to conditions: tail dipped 60 seconds in DMSO solution, 1 mM and 100 mM; 47.5° C. water bath; 15, 30, 60, 120 minutes; versus lidocaine hydrochloride.
For data set [7] the following is noted: background statement, in words; cited from earlier work.
A further data set relates to proteins in the body. To be noted: cited from earlier work.
The conditions of data set [8]: in words.
The mark [9] stands for this setting: C. albicans, incubated 48 h at 22° C., Sabouraud.
Where [10] appears, read: C. albicans, reduction not lower than 99.99%, 5 days at 22° C.
Setting [11] is: E. coli, incubated 24 h at 37° C., Mueller-Hinton.
The mark [12] stands for this setting: E. coli, reduction not lower than 99.99%, 48 h at 37° C.
The mark [13] stands for this setting: S. aureus, incubated 24 h at 37° C., Mueller-Hinton.
[14] abbreviates: S. aureus, reduction not lower than 99.99%, 48 h at 37° C.
Setting [15] is: E. faecium, incubated 24 h at 37° C., Mueller-Hinton.
The mark [16] stands for this setting: E. faecium, reduction not lower than 99.99%, 48 h at 37° C.

“Also recorded” adds a separate entry of the source.

Description for Swiss-Webster male mice: The rat tail flick test is used to determine the local anesthetic ability of lidocaine docusate compared with lidocaine hydrochloride. The rat is immobilized in a restraining sock, so that the tail is only exposed. The tail is dipped into hot water and the number of times the rat flicks its tail is recorded. When the anesthetic is applied, the rat's tail should be numb therefore it will not feel the hot water and the number of tail flicks should decrease.
For this test Swiss-Webster male mice were used. They were habituated in a restraining sock 3 times during a 10 day period. A baseline tail flick was determined for each rat in 47.5° C. water bath. […] The number of tail flicks was determined at 15, 30, 60, and 120 minutes in the 47.5° C. water bath. […] Using the following equation, one can determine the % MPE at each time for the two compounds in question. % MPE=(TFi−BL)/(10−BL)*100 • TFi=latency to withdraw tail from hot water • BL=baseline withdrawal time without the drug

On to `CCCCCCCCCC[N+](C)(C)CCCCCCCCCC.[Cl-]` [DDAC, didecyldimethylammonium chloride, reference compound], for which the MBC is 27.4 µg/mL in data set [1] (read-out: MBC Average value); 16 µg/mL in data set [2] (Candida albicans, ATCC10231, 120 h); 31.2 µg/mL in data set [3] (Escherichia coli, ATCC25922, 48 h); 31.2 µg/mL in data set [4] (Staphylococcus aureus, ATCC6538, 48 h); 31.2 µg/mL in data set [5] (Enterococcus faecium, ATCC49474, 48 h). Moreover, the MIC in data set [1] (read-out: MIC Average value) is 5.5 µg/mL; in [2] (Candida albicans, ATCC10231, 48 h) it was 8 µg/mL; in data set [3] (Escherichia coli, ATCC25922, 24 h), 8 µg/mL; in data set [4] (Staphylococcus aureus, ATCC6538, 24 h), 2 µg/mL; in data set [5] (Enterococcus faecium, ATCC49474, 24 h), 4 µg/mL.
With “didecyldimethylammonium N-[4-[[(2-amino-1,4-dihydro-4-oxo-6-pteridinyl)methyl]amino]benzoyl]-L-glutamate”, in [6], the Tonset is 201 °C and the Tonset5% was determined as 153 °C.
With `CCCCC(CC)COC(=O)CC(C(=O)OCC(CC)CCCC)S(=O)(=O)O.CCN(CC)CC(=O)Nc1c(C)cccc1C` (stereo not drawn) [lidocaine docusate], the “Anesthetic ability (tail flick, % MPE graphs)” value with Swiss-Webster male mice was “higher and longer anesthetic ability than lidocaine hydrochloride”.
`CCCCCCCCCCCC[N+](C)(C)Cc1ccccc1.O=C1[N-]S(=O)(=O)c2ccccc21` [[BA][Sac], benzalkonium saccharinate]: the “Td - temperature of total decomposition” value in data set [6] worked out at 227. Besides, in data set [6], the “Tonset - onset temperature of the decomposition” value (“Tonset - onset temperature” below) was 206. Also, in data set [6], the “Tonset(5%) - onset temperature for 5% of the decomposition” value (“Tonset(5%) - onset temperature” below) is given as 176. Moreover, the “MBC Average value” in data set [1] is 35.2 ppm. The “MIC Average value” in [1] stood at 11 ppm. For the same compound, the MIC was 16 ppm in data set [2] (setting [9]), 16 ppm in data set [3] (setting [11]), 4 ppm in data set [4] (setting [13]) and 8 ppm in data set [5] (setting [15]). Moreover, the MBC in [2] (setting [10]) came out at 31.2 ppm; in [3] (setting [12]) it was 62.5 ppm; in [4] (setting [14]), 31.2 ppm; in [5] (setting [16]), 16 ppm.
On to `CCC(C)n1ncn(-c2ccc(N3CCN(c4ccc(OCC5COC(Cn6cncn6)(c6ccc(Cl)cc6Cl)O5)cc4)CC3)cc2)c1=O` (stereo not drawn) [Itraconazole, itraconazole], for which, in [7], the “Solubility in organic solvents” value is given as “slightly soluble in alcohol; also recorded: freely soluble in dichloromethane” and the Solubility in water entry is “insoluble in water”. The “Drug bound to proteins in the body” value with proteins in the body is on record as 99.8%.
As for `CCCCCCCCCC[N+](C)(C)CCCCCCCCCC.CCN1CCN(C(=O)NC(C(=O)NC2C(=O)N3C2SC(C)(C)C3C(=O)[O-])c2ccccc2)C(=O)C1=O` (stereo not drawn) [Didecyldimethylammonium Piperacillin], in data set [6], the Tonset is 205 °C and the Tonset5% came out at 181 °C.
`CC(=O)NS(=O)(=O)c1ccc(N)cc1.CCCCCCCCCCCCCCCC[n+]1ccccc1` [Hexadecylpyridinium Sulfacetamide, hexadecylpyridinium sulfacetamide]: in data set [6], the Tonset is 219 °C and the Tonset5% stood at 211 °C.
In [6], `CCCCCCCCCC[N+](C)(C)CCCCCCCCCC.CCCCCCOC(=O)CC(C(=O)OCCCCCC)S(=O)(=O)O` (stereo not drawn) [Didecyldimethylammonium Colawet MA-80] had a Tonset of 226 °C and a Tonset5% of 218 °C.
For the compound `CCCCCCCCCCCCOC[N+](C)(C)CCOC(C)=O.O=C([O-])c1ccccc1` [(2-acetoxyethyl)dodecyloxymethyldimethylammonium Benzoate], the Tonset in data set [6] is 122 °C.
On to `CCCCCCCOC[N+](C)(C)CCOC(C)=O.O=C([O-])c1ccccc1` [(2-acetoxyethyl)heptyloxymethyldimethylammonium benzoate], for which, in data set [6], the Tonset is 120 °C.
Take `CCCCCCCCCC[N+](C)(C)CCCCCCCCCC.O=C1[N-]S(=O)(=O)c2ccccc21` [[DDA][Sac], Didecyldimethylammonium Saccharinate]: the “Td - temperature of total decomposition” value in data set [6] is 221. Moreover, the “Tonset - onset temperature” value in [6] worked out at 211. Further, the “Tonset(5%) - onset temperature” value in [6] is 184. Besides, the “MBC Average value” in data set [1] stood at 27.6 ppm. In [1], the “MIC Average value” was 11 ppm. For the same compound, the “Biological activity compared with the starting quaternary ammonium chloride (average MIC and MBC)” value in data set [1] is “high in comparison with starting material”. The MIC in data set [2] (setting [9]) is 16 ppm; in [3] (setting [11]), 16 ppm; in data set [4] (setting [13]) it was 4 ppm; in [5] (setting [15]) it was 8 ppm. Besides, the MBC in data set [2] (setting [10]) is 16 ppm; in data set [3] (setting [12]) it was 16 ppm; in data set [4] (setting [14]) it was 62.5 ppm; in [5] (setting [16]), 16 ppm.
As for `CCCCCCCCCCCOC[N+](C)(C)CCO.O=C([O-])c1ccccc1` [(2-hydroxyethyl)dimethylundecyloxymethylammonium benzoate], the Tonset in data set [6] was 127 °C.
As to `CC1=CC(=O)[N-]S(=O)(=O)O1.CCCCCCCCCCCC[N+](C)(C)Cc1ccccc1` [[BA][Ace], benzalkonium acesulfamate], the “Tonset(5%) - onset temperature” value in data set [6] is 186. For the same compound, in data set [1], the “MBC Average value” is reported as 54.7 ppm. Besides, the “MIC Average value” in data set [1] amounted to 14.8 ppm. Moreover, the “Biological activity compared with the starting quaternary ammonium chloride (average MIC and MBC)” value in [1] is given as “high activity of the salt, slightly lower than that of the starting benzalkonium chloride”. Moreover, the MIC in [2] (setting [9]) came out at 16 ppm; in data set [3] (setting [11]), 31.2 ppm; in data set [4] (setting [13]), 4 ppm; in data set [5] (setting [15]) it was 8 ppm. In addition, the MBC was 31.2 ppm in data set [2] (setting [10]), 125 ppm in data set [3] (setting [12]), 31.2 ppm in data set [4] (setting [14]) and 31.2 ppm in [5] (setting [16]).
For `CCCCCCCCCC[N+](C)(C)CCCCCCCCCC.Cc1ccc(S(=O)(=O)[O-])cc1` [didecyldimethylammonium p-toluenesulfonate], in data set [8], the “Solubility / miscibility in water” value is “insoluble in water and hexane”; the “Solubility in organic solvents / other media” value is recorded as “soluble in chloroform, acetone, DMSO”.
In data set [6], `CC([O-])=NS(=O)(=O)c1ccc(N)cc1.CCCCCCCCCC[N+](C)(C)CCCCCCCCCC` [Didecyldimethylammonium Sulfacetamide, didecyldimethylammonium (DDA) sulfacetamide] showed a Tonset of 200.2 °C and a Tonset5% of 183.3 °C.
As to `CC1=CC([O-])=NS(=O)(=O)O1.CCCCCCCCCC[N+](C)(C)CCCCCCCCCC` [[DDA][Ace], didecyldimethylammonium acesulfamate], the “Td - temperature of total decomposition” value in data set [6] amounted to 245. Also, in data set [6], the “Tonset - onset temperature” value is given as 201. Also, the “Tonset(5%) - onset temperature” value in [6] is on record as 182. In addition, the “MBC Average value” in [1] stood at 31.4 ppm. Further, the “MIC Average value” in data set [1] is 12 ppm. Besides, the “Biological activity compared with the starting quaternary ammonium chloride (average MIC and MBC)” value in data set [1] is recorded as “only slight difference in the biological activity”. Further, the MIC in data set [2] (setting [9]) came to 16 ppm; in data set [3] (setting [11]), 16 ppm; in data set [4] (setting [13]) it was 8 ppm; in [5] (setting [15]) it was 8 ppm. In addition, the MBC in data set [2] (setting [10]) turned out to be 16 ppm; in [3] (setting [12]) it was 62.5 ppm; in data set [4] (setting [14]), 16 ppm; in [5] (setting [16]), 31.2 ppm.
`CCCCCCCCCCCCCCCC[n+]1ccccc1.CCCCCCOC(=O)CC(C(=O)OCCCCCC)S(=O)(=O)[O-]` (stereo not drawn) [Hexadecylpyridinium Colawet MA-80]: in data set [6], the Tonset came out at 262 °C and the Tonset5% amounted to 248 °C.
